The values below come from patent US20150011751A1, “NOVEL TRIAZINE DERIVATIVE” (CARNA BIOSCIENCES, INC., priority 2012, published 2015).

Structures are written as SMILES.

The test system of assay [1] is intracellular BTK (pY223) in Ramos cells. In words: cells. Particulars: Homo sapiens, read-out: BTK phosphorylation inhibitory activity.
Method: The supernatant was recovered by a centrifugal operation (at 15,000 rpm for 15 minutes) and the amount of protein was quantitatively determined. The supernatant was mixed with SDS-sample buffer and the mixture was reacted at 95° C. for 5 minutes thereby modifying the protein to obtain a sample solution. […] Thereafter, the protein in the gel was transferred to a PVDF membrane, using an iBlot gel transfer system (Life Technologies Corporation).
The unreacted secondary antibody was washed with TBST buffer and reacted according to the attached protocol, using ECL Prime Western Blotting Detection System (GE Healthcare Ltd.), and then each band was detected by chemiluminescence using a CCD camera (ATTO, Light-CaptureII). The detected band was digitized by densitometry (ATTO CS Analyzer ver.3.0) and an inhibition ratio was calculated from the intensity of a band in each group on the assumption that luminescence of a band of phosphorylated BTK of the compound no-addition and IgM stimulated group is 100%, whereas, luminescence of a band of phosphorylated BTK of the compound no-addition and IgM non-stimulated group is 0%. Each band of phosphorylated BTK was corrected by the total BTK.
Thereafter, IgM (Invitrogen, H15100) diluted with the medium was added so that the final concentration becomes 10 μg/mL, followed by incubation at 37° C. for 10 minutes.
The intracellular BTK autophosphorylation inhibiting activity was indicated with the mark “***” when 70% or more, with the mark “**” when 50% or more and less than 70%, and with the mark “*” when 30% or more and less than 50%.
Assay [2] concerns the target Dephosphorylated BTK (Homo sapiens, UniProt Q06187). Put plainly: Test of activity inhibition against dephosphorylated BTK (mobility shift assay).
Method: Kinase activity was measured by a mobility shift assay (MSA) method using QuickScout Screening Assist (trademark) MSA (commercially available kit, manufactured by Carna Biosciences, Inc.). FITC-labeled SRCtide peptide supplied with the kit was used as a substrate of a kinase reaction.
IC50 value was calculated by regression analysis of the inhibition ratio and the test compound concentration (logarithm).
Dephosphorylated BTK was obtained by adding a A protein phosphatase (Code No. P0753S, manufactured by New England BioLabs Inc.) and MnCl2 to a biotinylated BTK protein BTN-BTK (manufactured by Carna Biosciences, Inc.) enzyme solution so as to adjust the concentrations to 10 U/μg and 2 mM, respectively, reacting the mixture at 4° C. overnight, removing the A protein phosphatase through anti-[sequence]-tag antibody agarose gel chromatography, and performing buffer exchange using 10DG Desalting Column.

Sequence of Dephosphorylated BTK (Q06187 whole entry): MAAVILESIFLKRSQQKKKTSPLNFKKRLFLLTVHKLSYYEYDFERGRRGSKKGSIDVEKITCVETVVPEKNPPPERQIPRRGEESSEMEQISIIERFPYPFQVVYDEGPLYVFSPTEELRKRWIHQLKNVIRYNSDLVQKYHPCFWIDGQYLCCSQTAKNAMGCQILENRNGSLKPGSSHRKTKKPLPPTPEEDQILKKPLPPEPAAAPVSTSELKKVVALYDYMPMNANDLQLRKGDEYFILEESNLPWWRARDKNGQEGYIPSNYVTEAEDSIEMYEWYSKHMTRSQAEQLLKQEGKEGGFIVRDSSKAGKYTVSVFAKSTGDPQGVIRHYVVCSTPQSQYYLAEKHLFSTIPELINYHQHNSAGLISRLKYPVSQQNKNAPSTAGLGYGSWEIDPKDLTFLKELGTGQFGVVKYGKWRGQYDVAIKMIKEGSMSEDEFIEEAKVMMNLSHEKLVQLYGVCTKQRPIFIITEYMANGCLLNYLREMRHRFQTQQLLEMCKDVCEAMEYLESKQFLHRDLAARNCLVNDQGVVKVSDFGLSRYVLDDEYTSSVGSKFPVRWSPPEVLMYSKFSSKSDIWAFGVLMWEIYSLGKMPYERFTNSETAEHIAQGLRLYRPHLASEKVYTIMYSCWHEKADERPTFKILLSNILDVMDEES

For orientation: IC50 means the concentration needed to halve the response being measured. With `Cn1ccc(Nc2nc(N)nc(-c3cccc(N4CCc5cc(C6CC6)cc(F)c5C4=O)c3CO)n2)c1` [Example 213, 2-(3-{4-Amino-6-[(1-meth-yl-1H-pyrrol-3-yl)amino]-1,3,5-triazin-2-yl}-2-(hydroxymethyl)phenyl)-6-cyclopropyl-8-fluoro-3,4-dihydro-isoquinolin-1(2H)-one], the inhibition at 0.3 µM in assay [1] is more than 70%. The IC50 in assay [2] is 1.1 nM. Take `Nc1nc(Nc2cnn(CC3CC3)c2)nc(-c2cccc(N3CCc4cc(C5CC5)cc(F)c4C3=O)c2CO)n1` [Example 214, 2-[3-(4-Amino-6-{[1-(cyclo-propylmethyl)-1H-pyrazol-4-yl]amino}-1,3,5-triazin-2-yl)-2-(hydroxymethyl)phenyl]-6-cyclopropyl-8-fluoro-3,4-dihydroisoquinolin-1(2H)-one]: the inhibition at 0.3 µM in assay [1] was more than 70%. In assay [2], the half-inhibitory concentration (IC50) was 0.3 nM. Take `Cc1c(NC(=O)c2ccc(C(C)(C)C)cc2)cccc1-c1nc(N)nc(Nc2ccc(C(=O)N3CCOC(CN)C3)cc2)n1` (centres unmarked) [Example 32, N-{3-[4-Amino-6-({4-[2-(aminomethyl)morpho-line-4-carbonyl]phenyl}amino)-1,3,5-triazin-2-yl]-2-methylphenyl}-4-(tert-butyl)benz-amide]: in assay [1], the inhibition at 0.3 µM was more than 70%. Also, the IC50 in assay [2] amounted to 0.8 nM.

As to `CN(C)CCCOc1ccc(Nc2nc(N)nc(-c3cccc(NC(=O)c4ccc(C(C)(C)C)cc4)c3CO)n2)cc1` [Example 70, N-{3-[4-Amino-6-({4-[3-(dimethylamino)prop-oxy]phenyl}amino)-1,3,5-triazin-2-yl]-2-(hydroxy-methyl)phenyl}-4-(tert-butyl)benzamide], the inhibition at 0.3 µM in assay [1] is more than 70%. Besides, the half-inhibitory concentration (IC50) in assay [2] is 1 nM. On to `Cc1c(NC(=O)c2ccc(C(C)(C)C)cc2)cccc1-c1nc(N)nc(Nc2ccc(C(=O)N3CCOCC3CO)cc2)n1` (centres unmarked) [Example 31, N-{3-[4-Amino-6-({4-[3-(hydroxymethyl)morpho-line-4-carbonyl]phe-nyl}amino)-1,3,5-tria-zin-2-yl]-2-methylphe-nyl}-4-(tert-butyl) benzamide], for which the inhibition at 0.3 µM in assay [1] is more than 70%. Besides, the half-maximal inhibitory concentration (IC50) in assay [2] turned out to be 1.5 nM. As to `Cn1cc(Nc2nc(N)nc(-c3cccc(N4CCc5cc(C6CC6)cc(F)c5C4=O)c3CO)n2)cn1` [Example 180, 2-(3-{4-Amino-6-[(1-methyl-1H-pyrazol-4-yl)amino]-1,3,5-triazin-2-yl}-2-(hydroxymeth-yl)phenyl)-6-cyclopro-pyl-8-fluoro-3,4-dihy-droisoquinolin-1(2H)-one], the inhibition at 0.3 µM in assay [1] is more than 70%. Also, in assay [2], the 50% inhibitory concentration (IC50) was 0.7 nM.

Consider `Cc1c(-c2nc(N)nc(Nc3ccc(C(=O)N4CCOCC4)cc3)n2)cccc1N1Cc2cc(C(C)(C)C)ccc2C1=O` [Example 33, 2-[3-(4-Amino-6-{[4-(morpholine-4-carbonyl)phenyl]amino}-1,3,5-triazin-2-yl)-2-methylphenyl]-5-(tert-butyl)isoindolin-1-one], for which the inhibition at 0.3 µM in assay [1] is more than 70%. Turning to `CN1CCN(c2ccc(Nc3nc(N)nc(-c4cccc(NC(=O)c5ccc(C(C)(C)C)cc5)c4CO)n3)cc2)CC1` [Example 146, N-[3-(4-Amino-6-{[4-(4-methylpiperazin-1-yl)phenyl]amino}-1,3,5-triazin-2-yl)-2-(hy-droxymethyl)phenyl]-4-(tert-butyl)benzamide], the IC50 in assay [2] is 0.4 nM.

Regarding `Cn1cc(Nc2nc(N)nc(-c3cccc(N4CCc5cc(C6CC6)cc(F)c5C4=O)c3CO)n2)cc1C#N` [Example 269, 4-({4-Amino-6-[3-(6-cyclo-propyl-8-fluoro-1-oxo-3,4-dihydroisoquino-lin-2(1H)-yl)-2-(hy-droxymethyl)phenyl]-1,3,5-triazin-2-yl}ami-no)-1-methyl-1H-pyrrole-2-carbonitrile], the IC50 in assay [2] was determined as 0.8 nM. Still for that read-out and setting: to `COCCOc1ccc(Nc2nc(N)nc(-c3cccc(NC(=O)c4ccc(C(C)(C)C)cc4)c3CO)n2)cc1OCCOC` [Example 90, N-[3-(4-Amino-6-{[3,4-bis(2-methoxyethoxy)phenyl]amino}-1,3,5-tri-azin-2-yl)-2-(hydroxy-methyl)phenyl]-4-(tert-butyl)benzamide] belongs 0.7 nM; to `CC(C)(C)c1ccc(C(=O)Nc2cccc(-c3nc(N)nc(Nc4ccc(N5CCNC5=O)cc4)n3)c2CO)cc1` [Example 167, N-[3-(4-Amino-6-{[4-(2-oxoimidazolidin-1-yl)phenyl]amino}-1,3,5-triazin-2-yl)-2-(hy-droxymethyl)phenyl]-4-(tert-butyl)benzamide], 1.6 nM. Regarding `Cc1c(NC(=O)c2ccc(C(C)(C)C)cc2)cccc1-c1nc(N)nc(Nc2ccc(N3CCCC(O)C3)cc2)n1` (centres unmarked) [Example 81, N-[3-(4-Amino-6-{[4-(3-hydroxypiperidin-1-yl)phenyl]amino}-1,3,5-triazin-2-yl)-2-meth-ylphenyl]-4-(tert-bu-tyl)benzamide], the IC50 in assay [2] came out at 2.2 nM. Turning to `CC(C)(C)c1ccc(C(=O)Nc2cccc(-c3nc(N)nc(Nc4ccc(OCCn5cccc5)cc4)n3)c2CO)cc1` [Example 150, N-{3-[4-({4-[2-(1H-Pyr-rol-1-yl)ethoxy]phe-nyl}amino)-6-amino-1,3,5-triazin-2-yl]-2-(hy-droxymethyl)phenyl}-4-(tert-butyl)benzamide], the concentration for half-maximal inhibition (IC50) in assay [2] is 0.8 nM.

On to `Cc1c(-c2nc(N)nc(Nc3ccc(C(=O)N4CCOCC4)cc3)n2)cccc1N1Cc2cc(C(C)(C)C)sc2C1=O` [Example 42, 5-[3-(4-Amino-6-{[4-(morpholine-4-carbonyl)phenyl]amino}-1,3,5-triazin-2-yl)-2-methylphenyl]-2-(tert-butyl)-4H-thieno[2,3-c]pyrrol-6(5H)-one], for which, in assay [2], the IC50 stood at 6.5 nM. For the molecule `CC1(Cn2cc(Nc3nc(N)nc(-c4cccc(N5CCc6cc(C7CC7)cc(F)c6C5=O)c4CO)n3)cn2)COC1` [Example 261, 2-{3-[4-Amino-6-({1-[(3-methyloxetan-3-yl)methyl]-1H-pyrazol-4-yl}amino)-1,3,5-triazin-2-yl]-2-(hydroxymeth-yl)phenyl}-6-cyclopro-pyl-8-fluoro-3,4-di-hydroisoquinolin-1(1H)-one], in assay [2], the half-maximal inhibitory concentration (IC50) came out at 1.5 nM. Take `Nc1nc(Nc2cnn(CC3CCOCC3)c2)nc(-c2cccc(N3CCc4cc(C5CC5)cc(F)c4C3=O)c2CO)n1` [Example 257, 2-{3-[4-Amino-6-({1-[(tetra-hydro-2H-pyran-4-yl)methyl]-1H-pyrazol-4-yl}amino)-1,3,5-triazin-2-yl]-2-(hydroxy-methyl)phenyl}-6-cyclo-propyl-8-fluoro-3,4-dihydroisoquinolin-1(2H)-one]: the IC50 in assay [2] was found to be 0.6 nM. On to `Cc1cc(Nc2nc(N)nc(-c3cccc(N4CCc5cc(C6CC6)cc(F)c5C4=O)c3CO)n2)n[nH]1` [Example 205, 2-(3-{4-Amino-6-[(5-meth-yl-1H-pyrazol-3-yl)amino]-1,3,5-triazin-2-yl}-2-(hydroxymeth-yl)phenyl)-6-cyclopro-pyl-8-fluoro-3,4-dihy-droisoquinolin-1(2H)-one], for which, in assay [2], the half-inhibitory concentration (IC50) is 9.9 nM. In the case of `CC(C)(C)OC(=O)N1CCN(c2ccc(Nc3nc(N)nc(-c4cccc(NC(=O)c5ccc(C(C)(C)C)cc5)c4CO)n3)cc2)CC1` [Example 104, tert-Butyl 4-{4-[(4-amino-6-{3-[4-(tert-butyl)benzamido]-2-(hydroxymethyl)phenyl}-1,3,5-triazin-2-yl)amino]phenyl} piperazine-1-carboxylate], the IC50 in assay [2] stood at 5 nM.

As for `COCCOc1ccc(Nc2nc(N)nc(-c3cccc(NC(=O)c4ccc(C(C)(C)C)cc4)c3C)n2)cc1` [Example 34, N-[3-(4-Amino-6-{[4-(2-methoxyethoxy)phenyl]amino}-1,3,5-triazin-2-yl)-2-methylphenyl]-4-(tert-butyl)benz-amide], in assay [2], the IC50 stood at 4 nM. For `CC(C)(O)Cn1cc(Nc2nc(N)nc(-c3cccc(N4CCc5cc(C6CC6)cc(F)c5C4=O)c3CO)n2)cn1` [Example 278, 2-[3-(4-Amino-6-{[1-(2-hydroxy-2-methylpro-pyl)-1H-pyrazol-4-yl]amino}-1,3,5-triazin-2-yl)-2-(hydroxymethyl)phenyl]-6-cyclopropyl-8-fluoro-3,4-dihydro-isoquinolin-1(2H)-one], in assay [2], the 50% inhibitory concentration (IC50) is 2.2 nM. On the same count and under the same terms, in the case of `Nc1nc(Nc2ccc(OCCCO)cc2)nc(-c2cccc(N3CCc4cc(C5CC5)cc(F)c4C3=O)c2CO)n1` [Example 197, 2-[3-(4-Amino-6-{[4-(3-hydroxypropoxy)phe-nyl]amino}-1,3,5-tri-azin-2-yl)-2-(hydroxymeth-yl)phenyl]-6-cyclo-propyl-8-fluoro-3,4-di-hydroisoquinolin-1(2H)-one] it was 2.4 nM. Regarding `Cc1nccn1-c1ccc(Nc2nc(N)nc(-c3cccc(NC(=O)c4ccc(C(C)(C)C)cc4)c3CO)n2)cc1` [Example 172, N-[3-(4-Amino-6-{[4-(2-methyl-1H-imidazol-1-yl)phenyl]amino}-1,3,5-triazin-2-yl)-2-(hy-droxymethyl)phenyl]-4-(tert-butyl)benzamide], the IC50 in assay [2] was found to be 0.6 nM.

For `CC(C)(C)c1ccc(C(=O)Nc2cccc(-c3nc(N)nc(Nc4ccc(CC#N)cc4)n3)c2CO)cc1` [Example 148, N-[3-(4-Amino-6-{[4-(cyano-methyl)phenyl]ami-no}-1,3,5-triazin-2-yl)-2-(hydroxymethyl)phenyl]-4-(tert-butyl) benzamide], the half-inhibitory concentration (IC50) in assay [2] is 0.8 nM. Consider `Nc1nc(Nc2cccc(N3CCOCC3)c2)nc(-c2cccc(N3CCc4cc(C5CC5)cc(F)c4C3=O)c2CO)n1` [Example 243, 2-(3-{4-Amino-6-[(3-morpho-linophenyl)amino]-1,3,5-triazin-2-yl}-2-(hydroxymethyl)phe-nyl)-6-cyclopropyl-8-fluoro-3,4-dihydroiso-quinolin-1(2H)-one], for which, in assay [2], the IC50 was determined as 2.3 nM. Turning to `COc1cc(Nc2nc(N)nc(-c3cccc(NC(=O)c4ccc(C(C)(C)C)cc4)c3CO)n2)cc(OC)c1OC` [Example 91, N-(3-{4-Amino-6-[(3,4,5-trimethoxyphenyl)ami-no]-1,3,5-triazin-2-yl}-2-(hydroxymethyl)phenyl)-4-(tert-butyl) benzamide], in assay [2], the IC50 turned out to be 1.1 nM. With `CC(C)(C)c1ccc(C(=O)Nc2cccc(-c3nc(N)nc(Nc4ccc(OCCN5CCCC5)cc4)n3)c2CO)cc1` [Example 152, N-{3-[4-Amino-6-({4-[2-(pyrrolidin-1-yl)eth-oxy]phenyl}amino)-1,3,5-triazin-2-yl]-2-(hy-droxymethyl)phenyl}-4-(tert-butyl)benzamide], the half-inhibitory concentration (IC50) in assay [2] came out at 1.2 nM.
